Data set [1] can be described thus: (§1) Cytotoxicity against african green monkey Vero cells after 72 hrs by MTT assay. Type of data set: cell-based. Particulars: chlorocebus sabaeus, Vero cells. A general note: Tetrazolium dyes change colour on reduction, which living cells bring about.
The subject of data set [2] is Mycobacterium tuberculosis. Nature of the data set: Antibacterial activity against Mycobacterium tuberculosis H37Rv by BACTEC method. It is filed as functional.
For data set [3], the system named is Mycobacterium tuberculosis. Nature of the data set: Antibacterial activity against Mycobacterium tuberculosis H37Rv assessed as growth inhibition at 40 ug/ml by BACTEC method. Type of data set: functional. The conditions noted are these: read-out: GI.
Data set [4] has as its system Mycobacterium tuberculosis. Nature of the data set: Antibacterial activity against Mycobacterium tuberculosis H37Rv under anaerobic condition assessed as growth inhibition at 20 ug/ml after 2 to 3 days by BACTEC method. Type of data set: functional, organism-based.
The subject of data set [5] is Mycobacterium tuberculosis. Nature of the data set: Antibacterial activity against Mycobacterium tuberculosis H37Rv assessed as growth inhibition at 20 ug/ml by BACTEC method. Type of data set: functional. Particulars: read-out: GI.
Data set [6] deals with Mycobacterium tuberculosis. Nature of the data set: Antibacterial activity against Mycobacterium tuberculosis H37Rv assessed as growth inhibition at 20 to 40 ug/ml by BACTEC method. Type of data set: functional.
Data set [7] concerns Mycobacterium tuberculosis. Nature of the data set: Antibacterial activity against Mycobacterium tuberculosis H37Rv under anaerobic condition assessed as growth inhibition at 20 ug/ml by BACTEC method. It is filed as functional. Particulars: read-out: GI.
The subject of a further data set is Vero. Described as §1. It is filed as cell-based. The conditions noted are these: chlorocebus sabaeus, vero, 72 h.
For data set [8], the system named is Mycobacterium tuberculosis. Nature of the data set: Antibacterial activity against Mycobacterium tuberculosis H37Rv assessed as growth inhibition at 10 ug/ml by BACTEC method. Type of data set: functional. Particulars: read-out: GI.
For data set [9], the system named is Mycobacterium tuberculosis. Nature of the data set: Antibacterial activity against Mycobacterium tuberculosis H37Rv under anaerobic condition assessed as growth inhibition at 10 ug/ml by BACTEC method. It is filed as functional. The conditions noted are these: read-out: GI.
Data set [10] concerns Mycobacterium tuberculosis. Nature of the data set: Antibacterial activity against Mycobacterium tuberculosis H37Rv under anaerobic condition by BACTEC method. It is filed as functional.
Data set [11] has as its system Mycobacterium tuberculosis. Nature of the data set: Antibacterial activity against Mycobacterium tuberculosis H37Rv under anaerobic condition assessed as growth inhibition at 10 to 20 ug/ml by BACTEC method. It is filed as functional.
In data set [12] the test system is Mycobacterium tuberculosis. Nature of the data set: Antibacterial activity against Mycobacterium tuberculosis H37Rv under anaerobic condition assessed as growth inhibition at 5 ug/ml by BACTEC method. Type of data set: functional.
Data set [13] concerns Mycobacterium tuberculosis. Nature of the data set: Antibacterial activity against Mycobacterium tuberculosis H37Rv under anaerobic condition assessed as growth inhibition at 0.1 ug/ml by BACTEC method. Particulars: read-out: GI. It is filed as functional.
The subject of data set [14] is Mycobacterium tuberculosis. Nature of the data set: Antibacterial activity against Mycobacterium tuberculosis H37Rv under anaerobic condition assessed as growth inhibition at 2 ug/ml by BACTEC method. Type of data set: functional. The conditions noted are these: read-out: GI.
Data set [15] has as its system Mycobacterium tuberculosis. Nature of the data set: Antibacterial activity against Mycobacterium tuberculosis H37Rv under anaerobic condition assessed as growth inhibition at 100 ug/ml by BACTEC method. Type of data set: functional. The conditions noted are these: read-out: GI.
Data set [16] has as its system Mycobacterium tuberculosis. Nature of the data set: Antibacterial activity against Mycobacterium tuberculosis H37Rv under anaerobic condition assessed as growth inhibition at 1 ug/ml by BACTEC method. Type of data set: functional. Particulars: read-out: GI.
Data set [17] concerns Mycobacterium tuberculosis. Nature of the data set: Antibacterial activity against Mycobacterium tuberculosis H37Rv assessed as growth inhibition at 1 ug/ml by BACTEC method. Particulars: read-out: GI. It is filed as functional.
[18] abbreviates: Mycobacterium tuberculosis, H37Rv, read-out: MIC99.

By CC50 is commonly meant the concentration at which the toxic effect on the cells reaches its halfway point. A word on the MIC99: it is the lowest concentration that inhibits either 99% of growth or 99% of the strains tested, depending on the study.

≈ marks a conversion by molar mass, not a printed value. Calls of active or inactive are those of the source. No cut-off for these calls is given here.

With `O=c1ccn(C2C=CC(O)C2)c(=O)[nH]1` (racemic), the cytotoxic concentration (CC50) at 72 h in [1] was over 200 µg/mL. Further, the MIC99 in data set [2] is over 40 µg/mL. Moreover, the inhibition of growth at 40 µg/mL in data set [3] was 75%.

Take `Cc1cc(=O)[nH]c(=O)n1C1C=CC(O)C1` (racemic): in data set [4], the “growth inhibition (GI)” value was “inactive”. In [1], this compound yielded a CC50 at 72 h of over 200 µg/mL. The same compound came in with an MIC99 in data set [2] of 40 µg/mL (≈ 192 µM). Besides, the inhibition of growth at 40 µg/mL in data set [3] came to 100%.

For the compound `O=c1[nH]c(=O)n(C2C=CC(O)C2)cc1I` (racemic), in data set [5], the inhibition of growth at 20 µg/mL was determined as 99%. The compound further registered a half-maximal cytotoxic concentration (CC50) at 72 h in data set [1] of over 200 µg/mL. The compound also came in with an MIC99 in data set [2] of 20 µg/mL (≈ 62.5 µM). For the same compound, in [3], the inhibition of growth at 40 µg/mL turned out to be 100%.

As for `CCCCCCCCC#Cc1cn(C2C=CC(O)C2)c(=O)[nH]c1=O` (racemic), the “growth inhibition (GI)” value in data set [4] is “inactive”. In data set [1], this compound came in with a half-maximal cytotoxic concentration (CC50) at 72 h of over 125 µg/mL. This compound also returned an MIC99 in data set [2] of 40 µg/mL (≈ 121 µM). Also, the inhibition of growth at 40 µg/mL in [3] was 100%.

On to `CCCCCCCCCCC#Cc1cn(C2C=CC(O)C2)c(=O)[nH]c1=O` (racemic), for which the CC50 at 72 h in [1] is over 125 µg/mL. The “growth inhibition (GI)” value in [6] is 99%. In addition, the MIC99 in data set [2] stood at 20 µg/mL (≈ 55.8 µM).

As to `CCCCCCCCCCCCC#Cc1cn(C2C=CC(O)C2)c(=O)[nH]c1=O` (racemic), in data set [7], the inhibition of growth at 20 µg/mL was 100%. Moreover, the CC50 with Vero was determined as 125 µg/mL (≈ 323 µM). In data set [6], the “growth inhibition (GI)” value is listed as 100%. The inhibition of growth at 10 µg/mL in data set [8] and in data set [9] was 99% in each case. The compound also came in with an MIC99 in [2] of 10 µg/mL (≈ 25.9 µM).

`CCCCCCCCCCCCC#Cc1cn(C2C=CC(O)C2)c(=O)[nH]c1=O` (single isomer, unassigned; (-)) returned a CC50 at 72 h in data set [1] of over 100 µg/mL. Moreover, the MIC99 in data set [10] (setting [18]) was found to be 5 µg/mL (≈ 12.9 µM). Besides, the “growth inhibition (GI)” value in data set [11] turned out to be 100%; in data set [12], 99%.

`CCCCCCCCCCCCC#Cc1cn(C2C=CC(O)C2)c(=O)[nH]c1=O` (stereo in doubt; (+)6) came in with an MIC99 in data set [10] of 10 µg/mL (≈ 25.9 µM). Further, in [12], the “growth inhibition (GI)” value turned out to be 25%.

In the case of `CC[C@@H](CO)NCCN[C@@H](CC)CO` [ETHAMBUTOL], the MIC99 in data set [10] (setting [18]) came out at 5 µg/mL (≈ 24.5 µM). Further, the inhibition of growth at 5 µg/mL in data set [12] (Mycobacterium tuberculosis, H37Rv, read-out: GI) came to 100%.

Take `NNC(=O)c1ccncc1` [ISONIAZID]: in data set [13], the inhibition of growth at 0.1 µg/mL is 100%. Besides, in [10] (setting [18]), the MIC99 came out at 0.1 µg/mL (≈ 0.729 µM).

With `CC1COc2c(N3CCN(C)CC3)c(F)cc3c(=O)c(C(=O)O)cn1c23` (stereo not given) [OFLOXACIN], in data set [14], the inhibition of growth at 2 µg/mL was found to be 100%. In addition, in [10] (setting [18]), the MIC99 amounted to 2 µg/mL (≈ 5.53 µM).

Regarding `NC(=O)c1cnccn1` [PYRAZINAMIDE], the inhibition of growth at 100 µg/mL in [15] came out at 100%. Moreover, the MIC99 in [10] (setting [18]) is 100 µg/mL (≈ 812 µM).

With `CO[C@H]1/C=C/O[C@@]2(C)Oc3c(C)c(O)c4c(O)c(c(/C=N/N5CCN(C)CC5)c(O)c4c3C2=O)NC(=O)/C(C)=C\C=C\[C@H](C)[C@H](O)[C@@H](C)[C@@H](O)[C@@H](C)[C@H](OC(C)=O)[C@@H]1C` [RIFAMPIN], the inhibition of growth at 1 µg/mL in data set [16] and in [17] was 100% in each case. Besides, the 50% cytotoxic concentration (CC50) at 72 h in [1] was over 500 µg/mL. In addition, the MIC99 in data set [10] (setting [18]) and in data set [2] was 1 µg/mL (≈ 1.22 µM) throughout.

Consider `CN[C@@H]1[C@H](O[C@H]2[C@H](O[C@H]3[C@H](O)[C@@H](O)[C@H](N=C(N)N)[C@@H](O)[C@@H]3N=C(N)N)O[C@@H](C)[C@]2(O)C=O)O[C@@H](CO)[C@H](O)[C@H]1O` [STREPTOMYCIN], for which, in [13], the inhibition of growth at 0.1 µg/mL stood at 100%. Further, the MIC99 in data set [10] (setting [18]) worked out at 0.1 µg/mL (≈ 0.172 µM).

The values above are taken from ChEMBL document CHEMBL2157933, “The synthesis and antituberculosis activity of 5'-nor carbocyclic uracil derivatives” (Bioorg Med Chem, 2012).
